Data reported in ChEMBL document CHEMBL1201862, “PubChem BioAssay data set” (2004).
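Compound exposure: 48 hours, 5 concentrations, 96-well plates. GI50 = concentration required for 50% inhibition of growth.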 Active and inactive are the calls of the source. Cut-off read from the data, not from the text of the source: active = GI50 up to about 1.1 µM and inactive = higher.

What was measured:
Test in all cases: NCI tumour cell line growth inhibition, 48 h
[1] = tested on: HOP-62
[2] = tested on: SK-MEL-5
[3] = tested on: SNB-75
[4] = tested on: IGROV-1
[5] = tested on: SN12C
[6] = tested on: OVCAR-3
[7] = tested on: HOP-92
[8] = tested on: SF-539
[9] = tested on: Malme-3M
[10] = tested on: UO-31
[11] = tested on: RXF 393
[12] = tested on: M14
[13] = tested on: LXFL 529
[14] = tested on: A498
[15] = tested on: DMS-114
[16] = tested on: ACHN
[17] = tested on: COLO 205
[18] = tested on: OVCAR-8
[19] = tested on: SK-MEL-2
[20] = tested on: HCT-116
[21] = tested on: UACC-257
[22] = tested on: DMS-273
[23] = tested on: UACC-62
[24] = tested on: EKVX
[25] = tested on: SW-620
[26] = tested on: RPMI-8226
[27] = tested on: A549
[28] = tested on: HCT-15
[29] = tested on: CCRF-CEM
[30] = tested on: SF-295
[31] = tested on: MOLT-4
[32] = tested on: SK-MEL-28
[33] = tested on: SNB-78
[34] = tested on: SNB-19
[35] = tested on: SF-268
[36] = tested on: NCI-H522
[37] = tested on: CAKI-1
[38] = tested on: 786-0
[39] = tested on: NCI-H460
[40] = tested on: K562
[41] = tested on: HL-60
[42] = tested on: OVCAR-4
[43] = tested on: SR
[44] = tested on: M19-MEL
[45] = tested on: TK-10
[46] = tested on: HCC 2998
[47] = tested on: SK-OV-3
[48] = tested on: LOX IMVI
[49] = tested on: NCI-H23
[50] = tested on: U-251
[51] = tested on: HT-29
[52] = tested on: KM12
[53] = tested on: NCI-H226
[54] = tested on: KM-20L2
[55] = tested on: HOP-18
[56] = tested on: DLD-1
[57] = tested on: OVCAR-5

Structure (SMILES): Cc1c(N2CCOCC2)nc2ccc(Cl)cc2c1-c1ccccc1
- GI50 [1]: > 100 µM (inactive)
- GI50 [2]: 21 µM (inactive)
- GI50 [3]: 31.4 µM (inactive)
- GI50 [4]: > 100 µM (inactive)
- GI50 [5]: 47.8 µM (inactive)
- GI50 [6]: 64.7 µM (inactive)
- GI50 [7]: 42.7 µM (inactive)
- GI50 [8]: 61.9 µM (inactive)
- GI50 [9]: 60.5 µM (inactive)
- GI50 [10]: > 100 µM (inactive)
- GI50 [11]: 62.2 µM (inactive)
- GI50 [12]: > 100 µM (inactive)
- GI50 [13]: 61.2 µM (inactive)
- GI50 [14]: > 100 µM (inactive)
- GI50 [15]: 70.1 µM (inactive)
- GI50 [16]: 69 µM (inactive)
- GI50 [17]: > 100 µM (inactive)
- GI50 [18]: > 100 µM (inactive)
- GI50 [19]: > 100 µM (inactive)
- GI50 [20]: 56.9 µM (inactive)
- GI50 [21]: > 100 µM (inactive)
- GI50 [22]: 59.8 µM (inactive)
- GI50 [23]: > 100 µM (inactive)
- GI50 [24]: 91.8 µM (inactive)
- GI50 [25]: 66.2 µM (inactive)
- GI50 [26]: 46.9 µM (inactive)
- GI50 [27]: 43.8 µM (inactive)
- GI50 [28]: 42.6 µM
- GI50 [29]: 26.7 µM (inactive)
- GI50 [30]: > 100 µM (inactive)
- GI50 [31]: 21.8 µM (inactive)
- GI50 [32]: > 100 µM (inactive)
- GI50 [33]: > 100 µM (inactive)
- GI50 [34]: > 100 µM (inactive)
- GI50 [35]: 80.2 µM (inactive)
- GI50 [36]: 30.8 µM (inactive)
- GI50 [37]: 76.4 µM (inactive)
- GI50 [38]: 95.9 µM (inactive)
- GI50 [39]: 58.3 µM (inactive)
- GI50 [40]: 31.6 µM (inactive)
- GI50 [41]: 34 µM (inactive)
- GI50 [42]: 50.7 µM (inactive)
- GI50 [43]: 34.4 µM (inactive)
- GI50 [44]: 85.7 µM (inactive)
- GI50 [45]: > 100 µM (inactive)
- GI50 [46]: 40.9 µM (inactive)
- GI50 [47]: > 100 µM (inactive)
- GI50 [48]: 49.4 µM (inactive)
- GI50 [49]: 69.7 µM (inactive)
- GI50 [50]: 89.9 µM (inactive)
- GI50 [51]: 57.1 µM (inactive)
- GI50 [52]: 87.9 µM (inactive)

Structure (SMILES): Cc1ccc(/C=C(\C#N)c2ccccc2)cc1
- GI50 [1]: > 100 µM (inactive)
- GI50 [2]: > 100 µM (inactive)
- GI50 [3]: > 100 µM (inactive)
- GI50 [53]: > 100 µM (inactive)
- GI50 [4]: > 100 µM (inactive)
- GI50 [5]: > 100 µM (inactive)
- GI50 [54]: > 100 µM (inactive)
- GI50 [6]: > 100 µM (inactive)
- GI50 [7]: > 100 µM (inactive)
- GI50 [8]: > 100 µM (inactive)
- GI50 [10]: > 100 µM (inactive)
- GI50 [11]: > 100 µM (inactive)
- GI50 [12]: > 100 µM (inactive)
- GI50 [13]: > 100 µM (inactive)
- GI50 [14]: > 100 µM (inactive)
- GI50 [15]: > 100 µM (inactive)
- GI50 [16]: > 100 µM (inactive)
- GI50 [17]: > 100 µM (inactive)
- GI50 [18]: > 100 µM (inactive)
- GI50 [19]: > 100 µM (inactive)
- GI50 [20]: > 100 µM (inactive)
- GI50 [21]: > 100 µM (inactive)
- GI50 [22]: > 100 µM (inactive)
- GI50 [23]: > 100 µM (inactive)
- GI50 [25]: > 100 µM (inactive)
- GI50 [26]: > 100 µM (inactive)
- GI50 [55]: > 100 µM (inactive)
- GI50 [28]: > 100 µM
- GI50 [29]: > 100 µM (inactive)
- GI50 [30]: > 100 µM (inactive)
- GI50 [31]: > 100 µM (inactive)
- GI50 [32]: > 100 µM (inactive)
- GI50 [33]: > 100 µM (inactive)
- GI50 [35]: > 100 µM (inactive)
- GI50 [36]: > 100 µM (inactive)
- GI50 [37]: > 100 µM (inactive)
- GI50 [38]: > 100 µM (inactive)
- GI50 [39]: > 100 µM (inactive)
- GI50 [56]: > 100 µM (inactive)
- GI50 [57]: > 100 µM (inactive)
- GI50 [40]: > 100 µM (inactive)
- GI50 [42]: > 100 µM (inactive)
- GI50 [43]: > 100 µM (inactive)
- GI50 [44]: > 100 µM (inactive)
- GI50 [45]: > 100 µM (inactive)
- GI50 [46]: > 100 µM (inactive)
- GI50 [47]: > 100 µM (inactive)
- GI50 [48]: > 100 µM (inactive)
- GI50 [49]: > 100 µM (inactive)
- GI50 [50]: > 100 µM (inactive)
- GI50 [51]: > 100 µM (inactive)
- GI50 [52]: > 100 µM (inactive)

Structure (SMILES): N/C(=C\c1ccc(OCc2ccccc2)c(OCc2ccccc2)c1[N+](=O)[O-])C(=O)O
- GI50 [1]: > 100 µM (inactive)
- GI50 [2]: > 100 µM (inactive)
- GI50 [3]: > 100 µM (inactive)
- GI50 [53]: > 100 µM (inactive)
- GI50 [4]: > 100 µM (inactive)
- GI50 [5]: > 100 µM (inactive)
- GI50 [54]: > 100 µM (inactive)
- GI50 [6]: > 100 µM (inactive)
- GI50 [7]: > 100 µM (inactive)
- GI50 [8]: > 100 µM (inactive)
- GI50 [9]: > 100 µM (inactive)
- GI50 [10]: > 100 µM (inactive)
- GI50 [11]: > 100 µM (inactive)
- GI50 [12]: > 100 µM (inactive)
- GI50 [13]: > 100 µM (inactive)
- GI50 [14]: > 100 µM (inactive)
- GI50 [16]: > 100 µM (inactive)
- GI50 [17]: > 100 µM (inactive)
- GI50 [18]: > 100 µM (inactive)
- GI50 [19]: > 100 µM (inactive)
- GI50 [20]: > 100 µM (inactive)
- GI50 [21]: > 100 µM (inactive)
- GI50 [22]: > 100 µM (inactive)
- GI50 [23]: > 100 µM (inactive)
- GI50 [24]: > 100 µM (inactive)
- GI50 [25]: > 100 µM (inactive)
- GI50 [26]: > 100 µM (inactive)
- GI50 [55]: > 100 µM (inactive)
- GI50 [27]: > 100 µM (inactive)
- GI50 [29]: > 100 µM (inactive)
- GI50 [30]: > 100 µM (inactive)
- GI50 [31]: > 100 µM (inactive)
- GI50 [32]: > 100 µM (inactive)
- GI50 [33]: > 100 µM (inactive)
- GI50 [34]: > 100 µM (inactive)
- GI50 [35]: > 100 µM (inactive)
- GI50 [36]: > 100 µM (inactive)
- GI50 [38]: > 100 µM (inactive)
- GI50 [56]: > 100 µM (inactive)
- GI50 [57]: > 100 µM (inactive)
- GI50 [40]: > 100 µM (inactive)
- GI50 [41]: > 100 µM (inactive)
- GI50 [43]: > 100 µM (inactive)
- GI50 [44]: > 100 µM (inactive)
- GI50 [45]: > 100 µM (inactive)
- GI50 [46]: > 100 µM (inactive)
- GI50 [47]: > 100 µM (inactive)
- GI50 [48]: > 100 µM (inactive)
- GI50 [49]: > 100 µM (inactive)
- GI50 [50]: > 100 µM (inactive)
- GI50 [51]: > 100 µM (inactive)
- GI50 [52]: > 100 µM (inactive)

Structure (SMILES): C[N+]1(C)C/C(=C\c2ccc(O)cc2)C(=O)/C(=C/c2ccc(O)cc2)C1
- GI50 [1]: > 100 µM (inactive)
- GI50 [2]: > 100 µM (inactive)
- GI50 [3]: > 100 µM (inactive)
- GI50 [4]: > 100 µM (inactive)
- GI50 [5]: 18.5 µM (inactive)
- GI50 [54]: 61.4 µM (inactive)
- GI50 [6]: > 100 µM (inactive)
- GI50 [7]: > 100 µM (inactive)
- GI50 [8]: 65 µM (inactive)
- GI50 [9]: > 100 µM (inactive)
- GI50 [10]: > 100 µM (inactive)
- GI50 [11]: > 100 µM (inactive)
- GI50 [12]: > 100 µM (inactive)
- GI50 [13]: 60.5 µM (inactive)
- GI50 [14]: 85.1 µM (inactive)
- GI50 [15]: 21.4 µM (inactive)
- GI50 [16]: > 100 µM (inactive)
- GI50 [17]: 47.1 µM (inactive)
- GI50 [18]: 48.2 µM (inactive)
- GI50 [20]: 34 µM (inactive)
- GI50 [21]: > 100 µM (inactive)
- GI50 [22]: 53 µM (inactive)
- GI50 [23]: 64.9 µM (inactive)
- GI50 [24]: > 100 µM (inactive)
- GI50 [25]: > 100 µM (inactive)
- GI50 [26]: 44.7 µM (inactive)
- GI50 [55]: > 100 µM (inactive)
- GI50 [27]: 37.5 µM (inactive)
- GI50 [28]: 60.1 µM
- GI50 [29]: 23.7 µM (inactive)
- GI50 [30]: 63.2 µM (inactive)
- GI50 [31]: 47.4 µM (inactive)
- GI50 [32]: > 100 µM (inactive)
- GI50 [33]: > 100 µM (inactive)
- GI50 [34]: > 100 µM (inactive)
- GI50 [35]: 55.7 µM (inactive)
- GI50 [36]: > 100 µM (inactive)
- GI50 [37]: > 100 µM (inactive)
- GI50 [38]: > 100 µM (inactive)
- GI50 [39]: 29 µM (inactive)
- GI50 [56]: 49.7 µM (inactive)
- GI50 [57]: > 100 µM (inactive)
- GI50 [41]: 19.5 µM (inactive)
- GI50 [42]: > 100 µM (inactive)
- GI50 [43]: 82.4 µM (inactive)
- GI50 [44]: > 100 µM (inactive)
- GI50 [45]: 18 µM (inactive)
- GI50 [46]: > 100 µM (inactive)
- GI50 [47]: > 100 µM (inactive)
- GI50 [48]: 56.8 µM (inactive)
- GI50 [50]: 49.5 µM (inactive)
- GI50 [51]: > 100 µM (inactive)
- GI50 [52]: 45.1 µM (inactive)
